Values joined by “and” are separate entries in the source; they are usually repeats but may differ in a detail not shown here. Equal values may be shown once. ± gives the expanded uncertainty stated by the source.
Legend:
[1] = xn = mol fraction of the nth substance listed; conditions: 298 K; 100 kPa; Crystal of intercomponent compound 1; X-ray diffraction; x2 = 0.501
[2] = specific heat capacity at constant pressure; xn = mol fraction of the nth substance listed; conditions: 100 kPa, Crystal of intercomponent compound 1, relaxation calorimetry, x2 = 0.501

[Se] [selenium] + [Ga]
Conditions	mass density [kg/m3]
[1]	4995 ± 33

[2]
Conditions	specific heat capacity
16.15 K	11.99 ± 0.98 J/K/kg
16.17 K	12 ± 0.98 J/K/kg
18.16 K	16.65 ± 1.2 J/K/kg and 16.64 ± 1.2 J/K/kg
18.18 K	16.69 ± 1.2 J/K/kg
20.17 K	21.87 ± 1.4 J/K/kg
20.18 K	21.87 ± 1.4 J/K/kg
20.19 K	21.91 ± 1.4 J/K/kg
22.2 K	27.43 ± 1.6 J/K/kg and 27.5 ± 1.6 J/K/kg
22.21 K	27.42 ± 1.6 J/K/kg
24.22 K	33.32 ± 1.8 J/K/kg and 33.29 ± 1.8 J/K/kg
24.23 K	33.28 ± 1.8 J/K/kg
26.23 K	39.37 ± 2 J/K/kg and 39.38 ± 2 J/K/kg
26.24 K	39.4 ± 2 J/K/kg
28.25 K	45.37 ± 2.2 J/K/kg and 45.38 ± 2.2 J/K/kg and 45.39 ± 2.2 J/K/kg
30.27 K	51.28 ± 2.4 J/K/kg and 51.24 ± 2.4 J/K/kg
30.28 K	51.39 ± 2.4 J/K/kg
35.31 K	66.34 ± 2.9 J/K/kg and 66.36 ± 2.9 J/K/kg and 66.53 ± 2.9 J/K/kg
40.35 K	80.84 ± 3.5 J/K/kg and 80.98 ± 3.5 J/K/kg and 81.11 ± 3.5 J/K/kg
45.38 K	95.31 ± 4 J/K/kg
45.39 K	94.97 ± 4 J/K/kg
45.4 K	95.04 ± 4 J/K/kg
50.4 K	109.56 ± 4.6 J/K/kg
50.42 K	108.96 ± 4.6 J/K/kg
50.44 K	108.89 ± 4.6 J/K/kg
55.43 K	122.81 ± 5.1 J/K/kg
55.45 K	122.01 ± 5 J/K/kg
55.49 K	122.14 ± 5 J/K/kg
60.46 K	135.73 ± 5.6 J/K/kg
60.49 K	134.99 ± 5.6 J/K/kg
60.52 K	134.92 ± 5.6 J/K/kg
65.48 K	148.37 ± 6.1 J/K/kg
65.53 K	147.43 ± 6.1 J/K/kg
65.58 K	147.3 ± 6.1 J/K/kg
70.5 K	160.95 ± 6.6 J/K/kg
70.57 K	159.6 ± 6.6 J/K/kg
70.63 K	159.47 ± 6.5 J/K/kg
75.53 K	172.38 ± 7.1 J/K/kg
75.61 K	170.97 ± 7 J/K/kg
75.66 K	170.77 ± 7 J/K/kg
80.55 K	184.09 ± 7.5 J/K/kg
80.66 K	182.27 ± 7.5 J/K/kg
80.7 K	182.34 ± 7.5 J/K/kg
85.57 K	194.78 ± 7.9 J/K/kg
85.7 K	192.56 ± 7.9 J/K/kg
85.74 K	192.9 ± 7.9 J/K/kg
90.59 K	204.73 ± 8.3 J/K/kg
90.72 K	202.45 ± 8.3 J/K/kg
90.78 K	202.18 ± 8.3 J/K/kg
95.61 K	213.21 ± 8.7 J/K/kg
95.73 K	211.33 ± 8.6 J/K/kg
95.82 K	210.32 ± 8.5 J/K/kg
100.79 K	218.86 ± 8.9 J/K/kg and 218.59 ± 8.9 J/K/kg
100.93 K	219.87 ± 8.9 J/K/kg
105.73 K	227.87 ± 9.3 J/K/kg
105.8 K	226.59 ± 9.2 J/K/kg
105.86 K	225.85 ± 9.2 J/K/kg
113.65 K	238.83 ± 9.7 J/K/kg
113.74 K	237.36 ± 9.7 J/K/kg
113.8 K	236.08 ± 9.6 J/K/kg
121.58 K	248.59 ± 10 J/K/kg
121.67 K	246.97 ± 10 J/K/kg
121.74 K	245.83 ± 10 J/K/kg
129.51 K	257.33 ± 10 J/K/kg
129.61 K	255.45 ± 10 J/K/kg
129.66 K	254.51 ± 10 J/K/kg
137.44 K	264.59 ± 11 J/K/kg
137.56 K	262.58 ± 11 J/K/kg and 263.32 ± 11 J/K/kg
145.45 K	269.91 ± 11 J/K/kg
145.46 K	268.03 ± 11 J/K/kg

Source: the NIST ThermoML archive (doi:10.1016/j.jct.2018.08.013)
